Experimental data from ChEMBL document CHEMBL3758090, “Investigation of α-conotoxin unbinding using umbrella sampling” (Bioorg Med Chem Lett, 2016).
Positions of bridges follow the written chain, without caps; N, C: chain ends. Residues, ends and D or L forms follow the SMILES beside them.

Target: T1, Soluble acetylcholine receptor (Aplysia californica, UniProt Q8WSF8)
T1 sequence (Q8WSF8 whole entry): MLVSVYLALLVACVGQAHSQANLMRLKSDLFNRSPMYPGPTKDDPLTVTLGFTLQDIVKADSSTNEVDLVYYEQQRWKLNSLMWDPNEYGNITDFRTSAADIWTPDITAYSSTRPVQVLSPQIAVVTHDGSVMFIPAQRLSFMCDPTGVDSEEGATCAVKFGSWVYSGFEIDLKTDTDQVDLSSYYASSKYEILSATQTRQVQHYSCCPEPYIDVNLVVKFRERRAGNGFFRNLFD
Experiment: Displacement [125I]alpha-bungarotoxin from untagged Aplysia californica AChBP expressed in Sf9 cells by competitive binding assay

In the case of CC(C)C[C@@H]1NC(=O)[C@H](C)NC(=O)[C@@H]2CSSC[C@H](NC(=O)CN)C(=O)N[C@@H](CSSC[C@@H](C(=O)O)NC(=O)[C@H](Cc3ccc(O)cc3)NC(=O)[C@H](CCCCN)NC(=O)[C@@H]3CCCN3C(=O)[C@H](CC(N)=O)NC(=O)[C@H](CC(N)=O)NC1=O)C(=O)N[C@@H](CO)C(=O)N[C@@H](CC(C)C)C(=O)N1CCC[C@H]1C(=O)N1CCC[C@H]1C(=O)N2 (H-GCCSLPPCALNNPKYC-OH; disulfide 2-8, 3-16), the IC50 is reported as 28 nM.
